Experiment [1] addresses [35S]-TBPS binding, rat brain cortical membranes (GABA receptor complex). Briefly: [35S]-TBPS binding (steroid inhibition of TBPS binding). The settings on record: in the presence of 5 μM GABA, read-out: 35S-TBPS Radioligand Displacement. As to the method: [35S]-t-Butylbicyclophosphorothionate (TBPS) binding assays using rat brain cortical membranes in the presence of 5 μM GABA has been described (Gee et al, J. Pharmacol. Exp. Ther. 1987, 241, 346-353; Hawkinson et al, Mol. Pharmacol. 1994, 46, 977-985; Lewin, A. H et al., Mol. Pharmacol. 1989, 35, 189-194).
Briefly, cortices are rapidly removed following decapitation of carbon dioxide-anesthetized Sprague-Dawley rats (200-250 g). The cortices are homogenized in 10 volumes of ice-cold 0.32 M sucrose using a glass/teflon homogenizer and centrifuged at 1500×g for 10 min at 4° C. The resultant supernatants are centrifuged at 10,000×g for 20 min at 4° C. to obtain the P2 pellets. The P2 pellets are resuspended in 200 mM NaCl/50 mM Na-K phosphate pH 7.4 buffer and centrifuged at 10,000×g for 10 min at 4° C. This washing procedure is repeated twice and the pellets are resuspended in 10 volumes of buffer. Aliquots (100 μL) of the membrane suspensions are incubated with 3 nM [^35S]-TBPS and 5 μL aliquots of test drug dissolved in dimethyl sulfoxide (DMSO) (final 0.5%) in the presence of 5 μM GABA. The incubation is brought to a final volume of 1.0 mL with buffer. Nonspecific binding is determined in the presence of 2 μM unlabeled TBPS and ranged from 15 to 25%. Following a 90 min incubation at room temp, the assays are terminated by filtration through glass fiber filters (Schleicher and Schuell No. 32) using a cell harvester (Brandel) and rinsed three times with ice-cold buffer. Filter bound radioactivity is measured by liquid scintillation spectrometry. Non-linear curve fitting of the overall data for each drug averaged for each concentration is done using Prism (GraphPad). […] The concentration of test compound producing 50% inhibition (IC50) of specific binding and the maximal extent of inhibition (Imax) are determined for the individual experiments with the same model used for the overall data and then the means±SEM.s of the individual experiments are calculated.
Various compounds are or can be screened to determine their potential as modulators of [^35S]-TBPS binding in vitro. These assays are or can be performed in accordance with the above discussed procedures.
A general note: Displacement assays read how much labelled ligand stays bound in the presence of the test substance.

Experiment [2] deals with T1, recombinant α1β2γ2 GABAA receptors (Homo sapiens, UniProt P14867+P47870).
T1 construct: expressed in transfected cells
Briefly: Patch clamp electrophysiology, QPatch, LTK cells. Type of experiment: cell-based. The settings on record: 10 μM test article, GABA EC20 = 2 μM, read-out: GABA (α1β2γ2) Qpatch in Ltk, % efficacy at 10 μM. A general note: Patch clamp records ionic current or voltage across a cell membrane.

Experiment [3] has as its target T2, recombinant α4β3δ GABAA receptors (Homo sapiens, UniProt P28472+P48169).
T2 construct: expressed in transfected cells; host or cells: CHO cells (transient transfection, Lipofectamine)
Briefly: Patch clamp electrophysiology, manual patch, CHO cells. Format: cell-based. The settings on record: 10 μM test article, GABA EC20 = 2 μM, read-out: GABA (α4β3δ) Manual patch in CHO, % efficacy at 10 μM.

The subject of the next experiment is male Sprague Dawley rats. Briefly: Loss of righting reflex in rats. Format: in vivo. The settings on record: Rat IV, 5 mpk. As to the method: Loss of Righting Reflex in Rats
The plasma pharmacokinetics and a qualitative assessment of sedation were obtained in male Sprague Dawley rats according to the following procedure. Rats were dosed by intravenous bolus dose (60 seconds) via the foot dorsal vein at doses ranging from 5 to 15 mg/kg in an appropriate vehicle. In order to assess sedation, rats were gently restrained by hand to a lateral position for dose administration. […] If the animal was unable to return to an upright position, the time was recorded as the onset of loss of righting reflex (LRR). […] Sluggish or incomplete righting twice consecutively within a 30 second interval qualifies as a loss of righting reflex. After onset of LRR, animals were assessed every 5 minutes in the same manner. Recovery of righting reflex is defined as the ability of a rat to right itself completely within 20 seconds of being placed in dorsal recumbency. The duration of LRR is defined as the time interval between LRR and the return of righting reflex.

For experiment [4], the system named is PTZ-treated male CD-1 mice. Briefly: Acute PTZ (pentylenetetrazol-induced seizure) method in mice. Format: in vivo. The settings on record: Mus musculus, PO (oral administration), latency to tonic seizures, read-out: Anticonvulsive Effect Dose (minimal effective anticonvulsant dose). As to the method:
The anticonvulsant effect of test compounds were assessed in the pentylenetetazol-induced seizure assay in mice similar to methods described in Giardina & Gasior (2009) Curr Protoc Pharmacol., Chapter 5. Male CD-1 mice were housed in groups of five under controlled conditions (temperature of 22±2° C. and 12:12 light-dark cycle, lights on at 8:00 am) and water and food were available ad libitum. The mice were housed for 1 week prior to behavioral testing, at which time they weighed 25-35 g. Pentylenetetrazol (PTZ, Sigma) was dissolved in sterile 0.9% saline at a concentration of 12 mg/mL concentration for subcutaneous administration. Test compounds were formulated and administered via oral gavage or intraperitoneal injection at a predetermined time-point (typically 30 or 60 minutes) prior to PTZ injection. All solutions were made fresh and were given in a volume of 10 ml/kg body weight.
Mice were acclimated to the test room for at least 30 min before compound administration. Mice were randomized into at least four test groups (vehicle and at least three doses of the test compound) with 10 mice per group. […] Following the drug pretreatment time the mice were injected s.c. with PTZ (120 mg/kg). Immediately following the PTZ injection, mice were individually placed into observation chambers (25×15×15 cm) and a three-channel timer was started. Each mouse was continuously observed for 30 min and the following behaviors were recorded by observers blinded to the treatments: 1) latency to clonic convulsions that persist for 3 sec and followed by an absence of righting reflex 2) latency to tonic convulsions, characterized by the rigid extension of all four limbs that exceeded a 90 degree angle with the body 3) latency to death 4) number of clonic and tonic convulsions. Data are presented as mean±S.E.M and one-way analysis of variance with Dunnett's or Bonferroni's post-hoc test was used to detect significant differences in latency and number between the vehicle and dose group. p values<0.05 were regarded as statistically significant.

T1 sequence (P14867 28-456): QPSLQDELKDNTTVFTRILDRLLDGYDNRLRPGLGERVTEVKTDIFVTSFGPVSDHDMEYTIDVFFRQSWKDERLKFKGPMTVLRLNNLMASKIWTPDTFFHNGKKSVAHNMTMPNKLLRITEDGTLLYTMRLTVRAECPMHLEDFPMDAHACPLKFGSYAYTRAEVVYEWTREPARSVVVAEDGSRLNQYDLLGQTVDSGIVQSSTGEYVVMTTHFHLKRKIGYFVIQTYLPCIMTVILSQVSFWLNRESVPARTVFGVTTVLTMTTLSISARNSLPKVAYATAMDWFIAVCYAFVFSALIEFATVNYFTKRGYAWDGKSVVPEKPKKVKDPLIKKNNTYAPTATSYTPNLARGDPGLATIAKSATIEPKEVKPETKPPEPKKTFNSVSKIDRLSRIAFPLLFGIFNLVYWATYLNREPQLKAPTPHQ
T1 sequence (P47870 25-512 limits assumed): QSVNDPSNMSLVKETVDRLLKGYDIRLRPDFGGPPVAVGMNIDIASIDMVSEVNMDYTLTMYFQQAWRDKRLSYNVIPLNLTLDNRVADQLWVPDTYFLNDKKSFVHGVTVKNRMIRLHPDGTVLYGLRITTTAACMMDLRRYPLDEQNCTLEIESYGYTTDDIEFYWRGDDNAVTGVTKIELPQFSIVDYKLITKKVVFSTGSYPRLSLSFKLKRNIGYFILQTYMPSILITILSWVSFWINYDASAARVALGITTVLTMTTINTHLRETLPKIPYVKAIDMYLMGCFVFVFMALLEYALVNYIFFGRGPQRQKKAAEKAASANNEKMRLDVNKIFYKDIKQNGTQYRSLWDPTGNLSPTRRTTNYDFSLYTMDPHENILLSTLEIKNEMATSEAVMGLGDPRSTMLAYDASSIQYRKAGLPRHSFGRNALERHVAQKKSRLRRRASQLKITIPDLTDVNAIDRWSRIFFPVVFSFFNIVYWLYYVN
T1 sequence (P18507 40-475 partner): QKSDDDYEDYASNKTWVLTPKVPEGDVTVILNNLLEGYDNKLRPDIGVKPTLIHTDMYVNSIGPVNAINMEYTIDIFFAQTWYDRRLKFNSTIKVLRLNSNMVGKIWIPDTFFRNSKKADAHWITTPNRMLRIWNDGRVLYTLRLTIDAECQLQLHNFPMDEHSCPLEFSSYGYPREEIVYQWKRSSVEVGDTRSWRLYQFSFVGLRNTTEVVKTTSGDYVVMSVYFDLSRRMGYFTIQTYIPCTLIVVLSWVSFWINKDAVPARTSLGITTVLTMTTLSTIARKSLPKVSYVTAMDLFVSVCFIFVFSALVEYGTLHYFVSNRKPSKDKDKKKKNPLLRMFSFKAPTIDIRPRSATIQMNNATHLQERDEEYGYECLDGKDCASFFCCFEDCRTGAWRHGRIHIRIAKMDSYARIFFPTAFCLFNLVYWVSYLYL
T2 sequence (P48169 36-554): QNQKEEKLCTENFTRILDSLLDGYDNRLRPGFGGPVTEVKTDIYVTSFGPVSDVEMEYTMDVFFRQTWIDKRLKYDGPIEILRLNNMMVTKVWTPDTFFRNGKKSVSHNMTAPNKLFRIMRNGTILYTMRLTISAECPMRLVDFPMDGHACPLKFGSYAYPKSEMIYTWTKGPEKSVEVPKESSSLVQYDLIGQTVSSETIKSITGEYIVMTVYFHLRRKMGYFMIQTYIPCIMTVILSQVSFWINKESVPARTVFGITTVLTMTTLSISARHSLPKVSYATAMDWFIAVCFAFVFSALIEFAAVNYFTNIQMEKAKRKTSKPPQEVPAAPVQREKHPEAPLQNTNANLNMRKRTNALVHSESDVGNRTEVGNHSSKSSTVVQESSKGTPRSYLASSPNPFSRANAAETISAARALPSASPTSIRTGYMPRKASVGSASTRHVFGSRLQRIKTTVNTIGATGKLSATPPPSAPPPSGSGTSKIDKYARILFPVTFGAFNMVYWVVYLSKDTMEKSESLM
T2 sequence (P28472 26-473): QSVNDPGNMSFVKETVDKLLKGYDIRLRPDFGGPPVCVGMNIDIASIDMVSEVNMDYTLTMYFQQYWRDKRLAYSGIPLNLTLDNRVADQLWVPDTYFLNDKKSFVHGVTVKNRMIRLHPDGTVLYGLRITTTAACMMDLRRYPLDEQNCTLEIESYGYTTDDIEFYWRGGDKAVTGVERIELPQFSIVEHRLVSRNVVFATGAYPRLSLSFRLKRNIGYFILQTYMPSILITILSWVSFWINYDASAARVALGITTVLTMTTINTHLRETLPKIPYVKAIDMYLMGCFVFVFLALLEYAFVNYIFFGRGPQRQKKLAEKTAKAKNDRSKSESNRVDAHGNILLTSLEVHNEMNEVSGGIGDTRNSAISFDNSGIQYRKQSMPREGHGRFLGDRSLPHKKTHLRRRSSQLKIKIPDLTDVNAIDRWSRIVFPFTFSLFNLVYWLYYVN
T2 sequence (O14764 17-452 partner limits assumed): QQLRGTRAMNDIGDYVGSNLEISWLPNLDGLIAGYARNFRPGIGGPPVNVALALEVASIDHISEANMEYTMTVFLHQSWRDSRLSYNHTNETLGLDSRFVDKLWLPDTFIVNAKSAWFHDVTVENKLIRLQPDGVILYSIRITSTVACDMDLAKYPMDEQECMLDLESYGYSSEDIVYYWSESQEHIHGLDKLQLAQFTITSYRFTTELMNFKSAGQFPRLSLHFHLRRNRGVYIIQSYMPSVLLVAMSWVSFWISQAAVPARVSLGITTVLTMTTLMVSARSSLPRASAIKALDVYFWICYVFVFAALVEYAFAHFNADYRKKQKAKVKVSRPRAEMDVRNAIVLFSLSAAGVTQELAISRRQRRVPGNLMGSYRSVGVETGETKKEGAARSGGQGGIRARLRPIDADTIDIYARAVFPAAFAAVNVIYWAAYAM

As to `Cc1cnn(CC(=O)[C@H]2CC[C@H]3[C@@H]4CC[C@@H]5C[C@](C)(O)CC[C@@H]5[C@H]4CC[C@]23C)n1` [SA-3], in experiment [1], the IC50 is 1 to 50 nM. For the same compound, the Emax at 10 µM in experiment [2] was 100 to 500%; in experiment [3], over 500%. Besides, the “Duration of Rat LRR” value in the experiment with male Sprague Dawley rats was “B (B > 20 min)”.
In general, minimal effective dose refers to the smallest amount tested that counted as effective. As to `Cc1nnn(CC(=O)[C@H]2CC[C@H]3[C@@H]4CC[C@@H]5C[C@](C)(O)CC[C@@H]5[C@H]4CC[C@]23C)n1` [SA-7], the IC50 in experiment [1] lay in the range of 1 to 50 nM. Further, the Emax at 10 µM in experiment [2] and in experiment [3] was over 500% throughout. The “Duration of Rat LRR” value in the experiment with male Sprague Dawley rats is recorded as “B (B > 20 min)”. The minimal effective dose in experiment [4] was at most 1 mg/kg.
With `Cc1nnn(CC(=O)[C@H]2CC[C@H]3[C@@H]4CC[C@H]5C[C@](C)(O)CC[C@@H]5[C@H]4CC[C@]23C)n1` [SB-5], the Emax at 10 µM in experiment [2] is 100 to 500%; in experiment [3] it was over 500%. The “Duration of Rat LRR” value with male Sprague Dawley rats is reported as “B (B > 20 min)”. The minimal effective dose in experiment [4] is at most 1 mg/kg.
As for `CC[C@@]1(O)CC[C@H]2[C@H](CC[C@@H]3[C@@H]2CC[C@]2(C)[C@@H](C(=O)Cn4nccn4)CC[C@@H]32)C1` [SE-4], the IC50 in experiment [1] was 50 to 100 nM. The figures for the Emax at 10 µM in experiment [2] and in experiment [3] were 100 to 500% and over 500%, respectively. Further, the “Duration of Rat LRR” value with male Sprague Dawley rats was “A (A ≤ 20 min)”.
Take `Cc1nnn(CC(=O)[C@H]2CC[C@H]3[C@@H]4CC[C@@H]5C[C@@](O)(CF)CC[C@@H]5[C@H]4CC[C@]23C)n1` [SF-3]: the Emax at 10 µM in experiment [2] and in experiment [3] was 100 to 500% in each case. Besides, the “Duration of Rat LRR” value with male Sprague Dawley rats is given as “A (A ≤ 20 min)”. In experiment [4], the minimal effective dose was at most 1 mg/kg.
On to `COC[C@@]1(O)CC[C@H]2[C@@H](CC[C@@H]3[C@@H]2CC[C@]2(C)[C@@H](C(=O)Cn4ccnn4)CC[C@@H]32)C1` [SI-2], for which the IC50 in experiment [1] lay in the range of 100 to 500 nM. Also, the Emax at 10 µM in experiment [2] was 100 to 500%; in experiment [3], over 500%. In addition, in experiment [4], the minimal effective dose was in the range of 1 to 3 mg/kg.
For `COC[C@@]1(O)CC[C@H]2[C@@H](CC[C@@H]3[C@@H]2CC[C@]2(C)[C@@H](C(=O)Cn4nnc(C)n4)CC[C@@H]32)C1` [SI-4], the Emax at 10 µM in experiment [2] and in experiment [3] was 100 to 500% throughout. The “Duration of Rat LRR” value in the experiment with male Sprague Dawley rats is given as “B (B > 20 min)”. Besides, in experiment [4], the minimal effective dose was at most 1 mg/kg.
Take `C[C@@]1(O)CC[C@@H]2[C@H]3CC[C@]4(C)[C@@H](C(=O)Cn5ccnn5)CC[C@H]4[C@@H]3C[C@@H](F)[C@H]2C1` [SV-1]: in experiment [1], the IC50 is 100 to 500 nM. Also, the Emax at 10 µM in experiment [2] and in experiment [3] was 100 to 500% in each case. Besides, in experiment [4], the minimal effective dose is 1 to 3 mg/kg.
Turning to `C[C@@]1(O)CC[C@@H]2[C@H]3CC[C@]4(C)[C@@H](C(=O)Cn5nccn5)CC[C@H]4[C@@H]3C[C@@H](F)[C@H]2C1` [SV-2], the IC50 in experiment [1] was 50 to 100 nM. Besides, the Emax at 10 µM in experiment [2] and in experiment [3] was 100 to 500% in each case. For the same compound, the “Duration of Rat LRR” value in the experiment on male Sprague Dawley rats was “B (B > 20 min)”. In addition, in experiment [4], the minimal effective dose is at most 1 mg/kg.
As for `C[C@@]1(O)CC[C@@H]2[C@H]3CC[C@]4(C)[C@@H](C(=O)Cn5ncnn5)CC[C@H]4[C@@H]3C[C@@H](F)[C@H]2C1` [SV-3], the figures for the Emax at 10 µM in experiment [2] and in experiment [3] were 100 to 500% and over 500%, respectively. Moreover, in the experiment with male Sprague Dawley rats, the “Duration of Rat LRR” value is given as “A (A ≤ 20 min)”.
For `Cc1nnn(CC(=O)[C@H]2CC[C@H]3[C@@H]4C[C@@H](F)[C@H]5C[C@](C)(O)CC[C@@H]5[C@H]4CC[C@]23C)n1` [SV-5], the Emax at 10 µM in experiment [2] and in experiment [3] was 100 to 500% in each case. Moreover, in the experiment with male Sprague Dawley rats, the “Duration of Rat LRR” value is given as “B (B > 20 min)”. Moreover, in experiment [4], the minimal effective dose was at most 1 mg/kg.

The record behind these values is patent US20200165291A1, “NEUROACTIVE STEROIDS, COMPOSITIONS, AND USES THEREOF” (Sage Therapeutics, Inc., priority 2014, published 2020).
